Test system: P. falciparum K1 (strain resistant to chloroquine and pyrimethamine), erythrocytic stages
Experiment: Plasmodium falciparum in vitro assay, [3H] hypoxanthine incorporation
Format: cell-based
Conditions: Plasmodium falciparum, K1, P. falciparum strain K1; [3H] hypoxanthine incorporation; read-out: IC50 (nM) on K1
In short: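 K1 strain parasites grown in human red cells, 2.5% haematocrit, 0.3% parasitaemia, 37 °C, 4% CO2/3% O2; compounds in seven serial doubling dilutions.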

Structure (SMILES) | IC50 [nM]
O=C([C@H](Cc1ccccc1)N(Cc1ccc(-c2ccccn2)cc1)C(=O)C=Cc1ccc(C(F)(F)F)cc1)N1CCc2cccnc2C1 [Example 149, (S)-N-[1-Benzyl-2-(5,8-dihydro-6H-[1,7]naphthyridin-7-yl)-2-oxo-ethyl]-N-(4-pyridin-2-yl-benzyl)-3-(4-trifluoromethyl-phenyl)-acrylamide] | 26
CCCCN(CCCC)CCNC(=O)[C@H](Cc1ccccc1)N(Cc1ccc(-c2ccccn2)cc1)C(=O)C=Cc1ccc(C(F)(F)F)cc1 [Example 150] | 319
O=C(NCCN1CCOCC1)[C@H](Cc1ccccc1)N(Cc1ccc(-c2ccccn2)cc1)C(=O)C=Cc1ccc(C(F)(F)F)cc1 [Example 151] | 373
O=C(NCCN1CCCCC1)[C@H](Cc1ccccc1)N(Cc1ccc(-c2ccccn2)cc1)C(=O)C=Cc1ccc(C(F)(F)F)cc1 [Example 153] | 268
O=C(NCCN1CCCCCC1)[C@H](Cc1ccccc1)N(Cc1ccc(-c2ccccn2)cc1)C(=O)C=Cc1ccc(C(F)(F)F)cc1 [Example 154] | 420
CC(C)N(CCNC(=O)[C@H](Cc1ccccc1)N(Cc1ccc(-c2ccccn2)cc1)C(=O)C=Cc1ccc(C(F)(F)F)cc1)C(C)C [Example 155] | 327
CN(C)CCNC(=O)[C@H](Cc1ccccc1)N(Cc1ccc(-c2ccccn2)cc1)C(=O)C=Cc1ccc(C(F)(F)F)cc1 [Example 156] | 382
COCCN(C)C(=O)[C@H](Cc1ccccc1)N(Cc1ccc(N2CCOCC2)nc1)C(=O)C=Cc1ccc(C(F)(F)F)cc1 [Example 157, (S)-N-{1-[(2-Methoxy-ethyl)-methyl-carbamoyl]-2-phenyl-ethyl}-N-(6-morpholin-4-yl-pyridin-3-ylmethyl)-3-(4-trifluoromethyl-phenyl)-acrylamide] | 10
COCCN(C)C(=O)[C@H](Cc1ccccc1)N(Cc1ccc(N2CCOCC2)nc1)C(=O)C=Cc1ccc(C)cc1 [Example 158, (S)-N-{1-[(2-Methoxy-ethyl)-methyl-carbamoyl]-2-phenyl-ethyl}-N-(6-morpholin-4-yl-pyridin-3-ylmethyl)-3-p-tolyl-acrylamide] | 24
COCCN(C)C(=O)[C@H](Cc1ccccc1)N(Cc1ccc(N2CCOCC2)nc1)C(=O)C=Cc1ccc(OC)cc1 [Example 159, (S)-N-{1-[(2-Methoxy-ethyl)-methyl-carbamoyl]-2-phenyl-ethyl}-3-(4-methoxy-phenyl)-N-(6-morpholin-4-yl-pyridin-3-ylmethyl)-acrylamide] | 49
COCCN(C)C(=O)[C@H](Cc1ccccc1)N(Cc1ccccc1)C(=O)C=Cc1ccc(C)cc1 [Example 160, (S)-N-Benzyl-N-{1-[(2-methoxy-ethyl)-methyl-carbamoyl]-2-phenyl-ethyl}-3-p-tolyl-acrylamide] | 93
CCc1ccc(CN(C(=O)C=Cc2ccc(C)cc2)[C@@H](Cc2ccccc2)C(=O)N(C)CCOC)cc1 [Example 161, (S)-N-(4-Ethyl-benzyl)-N-{1-[(2-methoxy-ethyl)-methyl-carbamoyl]-2-phenyl-ethyl}-3-p-tolyl-acrylamide] | 49
COCCN(C)C(=O)[C@H](Cc1ccccc1)N(Cc1ccccn1)C(=O)C=Cc1ccc(C)cc1 [Example 162, (S)-N-{1-[(2-Methoxy-ethyl)-methyl-carbamoyl]-2-phenyl-ethyl}-N-pyridin-2-ylmethyl-3-p-tolyl-acrylamide] | 45
COCCN(C)C(=O)[C@H](Cn1cccc1)N(Cc1ccc(-c2ccccn2)cc1)C(=O)C=Cc1ccc(C(F)(F)F)cc1 [Example 163, (S)-N-{1-[(2-Methoxy-ethyl)-methyl-carbamoyl]-2-pyrrol-1-yl-ethyl}-N-(4-pyridin-2-yl-benzyl)-3-(4-trifluoromethyl-phenyl)-acrylamide] | 37
CN(C)CCN(C)C(=O)[C@H](Cc1ccccc1)N(Cc1ccc(-c2ccccn2)cc1)C(=O)C=Cc1ccc(C(F)(F)F)cc1 [Example 171, (S)-N-{1-[(2-Dimethylamino-ethyl)-methyl-carbamoyl]-2-phenyl-ethyl}-N-(4-pyridin-2-yl-benzyl)-3-(4-trifluoromethyl-phenyl)-acrylamide] | 80
CN(C(=O)[C@H](Cc1ccccc1)N(Cc1ccc(-c2ccccn2)cc1)C(=O)C=Cc1ccc(C(F)(F)F)cc1)[C@H]1CCN(Cc2ccccc2)C1 [Example 172, N-{1-[((S)-1-Benzyl-pyrrolidin-3-yl)-methyl-carbamoyl]-(S)-2-phenyl-ethyl}-N-(4-pyridin-2-yl-benzyl)-3-(4-trifluoromethyl-phenyl)-acrylamide] | 89
CN(C(=O)[C@H](Cc1ccccc1)N(Cc1ccc(-c2ccccn2)cc1)C(=O)C=Cc1ccc(C(F)(F)F)cc1)[C@@H]1CCN(Cc2ccccc2)C1 [Example 173, N-{1-[((R)-1-Benzyl-pyrrolidin-3-yl)-methyl-carbamoyl]-(S)-2-phenyl-ethyl}-N-(4-pyridin-2-yl-benzyl)-3-(4-trifluoromethyl-phenyl)-acrylamide] | 52
CN(C)CCN(Cc1ccccc1)C(=O)[C@H](Cc1ccccc1)N(Cc1ccc(-c2ccccn2)cc1)C(=O)C=Cc1ccc(C(F)(F)F)cc1 [Example 174] | 430
CN(CCO)C(=O)[C@H](Cc1ccccc1)N(Cc1ccc(N2CCOCC2)cc1)C(=O)C=Cc1ccc(C(F)(F)F)cc1 [Example 175, (S)-N-{1-[(2-Hydroxy-ethyl)-methyl-carbamoyl]-2-phenyl-ethyl}-N-(4-morpholin-4-yl-benzyl)-3-(4-trifluoromethyl-phenyl)-acrylamide] | 88
CC(=O)N1CCN(c2ccc(CN(C(=O)C=Cc3ccc(C(F)(F)F)cc3)[C@@H](Cc3ccccc3)C(=O)N(C)CCO)cc2)CC1 [Example 176, (S)-N-[4-(4-Acetyl-piperazin-1-yl)-benzyl]-N-{1-[(2-hydroxy-ethyl)-methyl-carbamoyl]-2-phenyl-ethyl}-3-(4-trifluoromethyl-phenyl)-acrylamide] | 51
COc1ccc(CN(C)C(=O)[C@H](Cc2ccccc2)N(Cc2ccc(N3CCOCC3)cc2)C(=O)C=Cc2ccc(C(F)(F)F)nc2)cc1 [Example 177, (S)-N-{1-[(4-Methoxy-benzyl)-methyl-carbamoyl]-2-phenyl-ethyl}-N-(4-morpholin-4-yl-benzyl)-3-(6-trifluoromethyl-pyridin-3-yl)-acrylamide] | 84
COCCN(C)C(=O)[C@H](Cc1ccccc1)N(Cc1ccc(N2CCN(C(C)=O)CC2)cc1)C(=O)C=Cc1ccc(C(F)(F)F)cc1 [Example 178, (S)-N-[4-(4-Acetyl-piperazin-1-yl)-benzyl]-N-{1-[(2-methoxy-ethyl)-methyl-carbamoyl]-2-phenyl-ethyl}-3-(4-trifluoromethyl-phenyl)-acrylamide] | 10
COCCN(C)C(=O)[C@H](Cc1ccccc1)N(Cc1ccc(N2CCOCC2)cc1)C(=O)C=Cc1ccc(C(F)(F)F)cc1 [Example 179, (S)-N-{1-[(2-Methoxy-ethyl)-methyl-carbamoyl]-2-phenyl-ethyl}-N-(4-morpholin-4-yl-benzyl)-3-(4-trifluoromethyl-phenyl)-acrylamide, formic acid] | 9
CC(=O)N1CCN(c2ccc(CN(C(=O)C=Cc3ccc(C(F)(F)F)cc3)[C@@H](Cc3ccccc3)C(=O)N(C)CCOc3ncccn3)cc2)CC1 [Example 180, (S)-N-[4-(4-Acetyl-piperazin-1-yl)-benzyl]-N-(1-{methyl-[2-(pyrimidin-2-yloxy)-ethyl]-carbamoyl}-2-phenyl-ethyl)-3-(4-trifluoromethyl-phenyl)-acrylamide] | 38
CC(=O)N1CCN(c2ccc(CN(C(=O)C=Cc3ccc(C(F)(F)F)cc3)[C@@H](Cc3ccccc3)C(=O)N(C)CCOCc3ccccc3)cc2)CC1 [Example 181, (S)-N-[4-(4-Acetyl-piperazin-1-yl)-benzyl]-N-{1-[(2-benzyloxy-ethyl)-methyl-carbamoyl]-2-phenyl-ethyl}-3-(4-trifluoromethyl-phenyl)-acrylamide] | 10
CN(CCOCc1ccccc1)C(=O)[C@H](Cc1ccccc1)N(Cc1ccc(N2CCOCC2)cc1)C(=O)C=Cc1ccc(C(F)(F)F)cc1 [Example 182, (S)-N-{1-[(2-Benzyloxy-ethyl)-methyl-carbamoyl]-2-phenyl-ethyl}-N-(4-morpholin-4-yl-benzyl)-3-(4-trifluoromethyl-phenyl)-acrylamide] | 18
CC(=O)N1CCN(c2ccc(CN(C(=O)C=Cc3ccc(C(F)(F)F)cc3)[C@@H](Cc3ccccc3)C(=O)N(C)CCOCc3ccc(C)cc3C)cc2)CC1 [Example 183, (S)-N-[4-(4-Acetyl-piperazin-1-yl)-benzyl]-N-(1-{[2-(2,4-dimethyl-benzyloxy)-ethyl]-methyl-carbamoyl}-2-phenyl-ethyl)-3-(4-trifluoromethyl-phenyl)-acrylamide, formic acid] | 60
COc1ccc(COCCN(C)C(=O)[C@H](Cc2ccccc2)N(Cc2ccc(N3CCN(C(C)=O)CC3)cc2)C(=O)C=Cc2ccc(C(F)(F)F)cc2)cc1F [Example 184, (S)-N-[4-(4-Acetyl-piperazin-1-yl)-benzyl]-N-(1-{[2-(3-fluoro-4-methoxy-benzyloxy)-ethyl]-methyl-carbamoyl}-2-phenyl-ethyl)-3-(4-trifluoromethyl-phenyl)-acrylamide, formic acid] | 13
CC(=O)N1CCN(c2ccc(CN(C(=O)C=Cc3ccc(C(F)(F)F)cc3)[C@@H](Cc3ccccc3)C(=O)N(C)CCOCc3cccc(C#N)c3)cc2)CC1 [Example 185, (S)-N-[4-(4-Acetyl-piperazin-1-yl)-benzyl]-N-(1-{[2-(3-cyano-benzyloxy)-ethyl]-methyl-carbamoyl}-2-phenyl-ethyl)-3-(4-trifluoromethyl-phenyl)-acrylamide, formic acid] | 19
CC(=O)N1CCN(c2ccc(CN(C(=O)C=Cc3ccc(C(F)(F)F)cc3)[C@@H](Cc3ccccc3)C(=O)N(C)CCOCc3cccc(OC(F)(F)F)c3)cc2)CC1 [Example 186, (S)-N-[4-(4-Acetyl-piperazin-1-yl)-benzyl]-N-(1-{methyl-[2-(3-trifluoromethoxy-benzyloxy)-ethyl]-carbamoyl}-2-phenyl-ethyl)-3-(4-trifluoromethyl-phenyl)-acrylamide, formic acid] | 58

Reference: patent US20110224210A1, “NOVEL BIS-AMIDES AS ANTI-MALARIAL AGENTS” (priority 2008, published 2011)
